Data from patent publication US7211562B2, “Methods for enhancing the efficacy of cytotoxic agents through the use of HSP90 inhibitors” (Sloan-Kettering Institute for Cancer Research, priority 2000, dated 2007).

Experiments:
SKBR-3 cells [1] = test: Confocal microscopy of spindle formation and nuclear fragmentation (Hoechst / anti-tubulin dual stain); type: cell-based, human; conditions: 12 h; for apoptosis / nuclear fragmentation / mitotic spindle formation / mitotic index: SKBr-3, 10 nM Taxol 4 h followed by 50 nM CNF-101 or vehicle
Description: Each experiment was repeated in triplicate.
The effects of Taxol®, CNF-101 and a combination of the two agents on nuclear fragmentation (a marker of apoptosis) and mitotic spindle formation in SKBR-3 cells were assessed.
In these sections, 4% of cells were undergoing mitosis and the mitotic cells appeared normal.

SKBR-3 cells [2] = test: Cell cycle distribution by DNA content (FACS); type: cell-based, human; conditions: SKBR-3, 10 nM Taxol 4 h, 50 nM CNF-101 12–24 h, or reversed order
Description: Cells were trypsinized and analyzed by DNA content (an indication of cell cycle status) by fluorescent staining and FACS analysis. Cell cycle distribution was assayed according to Nusse et al., 1990, Cytometry, 11: 813, with a Becton Dickinson fluorescence-activated cell sorter and analyzed by Cell Cycle Multi-cycle system (Phoenix Flow System, San Diego, Calif.).

## C=CCNC1=C2C[C@@H](C)C[C@H](OC)[C@H](O)[C@@H](C)/C=C(\C)[C@H](OC(N)=O)[C@@H](OC)/C=C\C=C(/C)C(=O)NC(=CC1=O)C2=O [CNF-101, 17-allylamino 17-demethoxygeldanamycin]
SKBR-3 cells [1]
  apoptosis / nuclear fragmentation: no significant apoptosis
  mitotic spindle formation / mitotic index: no effect on the spindle
SKBR-3 cells [1]; SKBr-3, 50 nM CNF-101 alone (or neither drug)
  cells undergoing mitosis: 4%
SKBR-3 cells [2]
  cell cycle distribution: slightly enhanced the G1 fraction

## CC(=O)O[C@H]1C(=O)[C@@]2(C)[C@H]([C@H](OC(=O)c3ccccc3)[C@]3(O)C[C@H](OC(=O)[C@H](O)[C@@H](NC(=O)c4ccccc4)c4ccccc4)C(C)=C1C3(C)C)[C@]1(OC(C)=O)CO[C@@H]1C[C@@H]2O [Taxol®, paclitaxel]
SKBR-3 cells [1]
  apoptosis / nuclear fragmentation: little evidence of apoptotic nuclear fragmentation
  mitotic spindle formation / mitotic index: increase in the mitotic index with all the mitotic cells appearing to have damaged spindles
SKBR-3 cells [2]
  cell cycle distribution: massive G2-M arrest
